Results published in US20040072775A1, “Enhancing the sensitivity of tumor cells to therapies” (priority 1994, published 2004).

Key:
Assay type in all cases: cell-based, human
[1] = system: empty vector-transduced T98G cells; assay: clonogenic assay after one hour cisplatin exposure, empty vector-transduced cells; conditions: clones counted 7 to 10 days later, read-out: concentration of cisplatin needed to achieve a 50% reduction in colony count
[2] = system: T98G glioblastoma cells; assay: clonogenic assay after one hour cisplatin exposure, parental cells; conditions: clones counted 7 to 10 days later, read-out: concentration of cisplatin needed to achieve a 50% reduction in colony count
Description: 1). Cells. T98G glioblastoma cells (Mercer et al., “Negative growth regulation in a glioblastoma tumor cell line that conditionally expresses human wild-type p53.” (1990) Proc. Natl. Acad. Sci., USA, 87:6166-6170) were obtained from ATCC and cultured at 37° C. in 10% CO2 in Dulbecco's Modified Eagles Medium supplemented with 10% heat inactivated fetal bovine serum, gentamycin, nonessential amino acids, and sodium pyruvate. […] 5). Control parental T98G cells and T98 Gp53 cells which had been adapted 2 weeks to culture in the absence of the antibiotics G418 were plated in 24 well plates at about 2×10^4 cells per well. The next day they were exposed for one hour to varying concentrations of cisplatin (a chemotherapeutic agent) from 10 to 40 μM in increments of 10 μM. The cisplatin was removed after one hour and replaced with complete medium (DMEM+10% Fetal Bovine Serum) and cells were allowed to grow for 7 days. After 7 days, cells were counted or stained with crystal violet. In the latter case, absorbance at 540 nm is proportional to cell viability. For clonogenic assays, cells were replated following treatment in 6 well plates at 500-1000 cells per well. Clones were counted 7 to 10 days later by staining in 0.5% methylene blue, 70% ETOH. Colony counts from p53 transfectants and parental T98G glioblastoma cells were compared. […] Subsequent assays confirmed this increased sensitivity. […]

[3] = system: T98 Gp53 cells; assay: clonogenic/growth assay after one hour cisplatin exposure, cells transduced with wild-type p53 gene
Description: 1). Cells. T98G glioblastoma cells (Mercer et al., “Negative growth regulation in a glioblastoma tumor cell line that conditionally expresses human wild-type p53.” (1990) Proc. Natl. Acad. Sci., USA, 87:6166-6170) were obtained from ATCC and cultured at 37° C. in 10% CO2 in Dulbecco's Modified Eagles Medium supplemented with 10% heat inactivated fetal bovine serum, gentamycin, nonessential amino acids, and sodium pyruvate.
2). Plasmids. A plasmid (pLp53RNL) containing the wild-type p53 gene and the neomycin (G418) resistance gene was used. The plasmid pLp53RNL was kindly provided by Dr. Martin Haas (University of California, San Diego), and has been previously described (Cheng et al., “Suppression of acute lymphoblastic leukemia by the human wild-type p53 gene,” (1992) Cancer Res., 53:222-226). This plasmid carries the retroviral sequence Lp53RNL in which wild-type p53 expression is driven from the Moloney murine leukemia virus (MoMLV) LTR. The neomycin resistance gene is driven from the Rous Sarcoma Virus (RSV) promoter.
3). Transfections. The plasmid was introduced into T98G cells using cationic liposomes. […]
5). […] After 7 days, cells were counted or stained with crystal violet. In the latter case, absorbance at 540 nm is proportional to cell viability. […] Clones were counted 7 to 10 days later by staining in 0.5% methylene blue, 70% ETOH. […]

Compound N.N.[Cl][Pt][Cl] [cisplatin] has an IC50 [1] of ~30 µM, an IC50 [2] of ~30 µM and an IC50 ([3]; cells transduced with wild-type p53 gene, one hour exposure, clones counted 7 to 10 days later, read-out: concentration of cisplatin needed to achieve a 50% reduction in colony count) of 15 to 20 µM. The “sensitivity of T98 Gp53 cells to the effects of cisplatin compared with parental T98G cells (FIG. 1)” value ([3]; cisplatin 10 to 40 μM, one hour) was “considerably more sensitive”.
